This is an account of results in patent EP0900076B1, “TRANSDERMAL DEVICE” (priority 1996, dated 1997).

Molecules are shown by their SMILES.

Data set [1] in a line: clinical. The note with it: human, in vivo, 100 mg.
The nature of data set [2]: Example 2: transdermal morphine after elective coronary surgery, amount absorbed from the drug cell. As to conditions: after 48 hours, of the initial 100 mg.
The conditions of data set [3]: postoperative monitoring during the test period.
The nature of data set [4]: clinical. The note with it: female, human, in vivo, 100 mg.
The conditions of data set [5]: 10 mg morphine, end of the 24 hour delivery, mean; cited from earlier work.

In “clinical [1]”, `CN1CC[C@]23c4c5ccc(O)c4O[C@H]2[C@@H](O)C=C[C@H]3[C@H]1C5` [Morphine acetate] gave a concentration at 0 h of 0 nM, a concentration at 1 h of 53 nM, a concentration at 2 h of 112 nM and a concentration at 3 h of 115 nM. In “clinical [1]”, this molecule came in with a concentration at 3.5 h of 154 nM and a concentration at 4 h of 162 nM.

For the molecule `CN1CC[C@]23c4c5ccc(O)c4O[C@H]2[C@@H](O)C=C[C@H]3[C@H]1C5` [Morphine], in data set [2], the “morphine dose in the drug cell found to be absorbed” value turned out to be 32 ± 6 mg. The oxygen saturation entry in data set [3] is “remained normal”. Also, in the data set “clinical [4]”, the concentration at 1 h was determined as 8 ± 3.5 nM, the concentration at 32 h came out at 9.8 ± 3.8 nM and the concentration at 48 h came out at 8.5 ± 1.7 nM. In addition, the “amount of drug in the reservoir was reduced” value in data set [5] was 75 per cent.
